Biological target: recombinant human PAI-1 (Homo sapiens, UniProt P05121)
Test: PAI-1 inhibitory activity, Test Method A (tPA fluorogenic substrate, Tris buffer pH8.0, 37 C)
Format: biochemical
Settings: test compound 25 μM; Test Method A
Procedure: To this solution, 50 μL solution of 400 μM fluogenic substrate for tPA (Pyr-Gly-Arg-MCA, Peptide Institute, Inc.) adjusted with the same buffer was added, and reacted for 30 minutes at 37° C. The reaction was stopped by adding 50 μL of 2% acetic acid. Fluorescence was measured at the excitation wavelength=360 nm, emission wavelength=460 or 465 nm using a microplate reader (SPECTRAFLUOR or GENios) by TECAN. The fluorescence intensities in the presence of the PAI-1 as the control (DMSO) or in the absence of the PAI-1 (tPA alone) were taken as 100% and 0% of PAI-1 activities, respectively, and inhibitory ratios of PAI-1 activities in the presence of the test compound were obtained.
<Composition of the Tris Buffer (pH8.0)>

recombinant human PAI-1, sequence (P05121 24-402): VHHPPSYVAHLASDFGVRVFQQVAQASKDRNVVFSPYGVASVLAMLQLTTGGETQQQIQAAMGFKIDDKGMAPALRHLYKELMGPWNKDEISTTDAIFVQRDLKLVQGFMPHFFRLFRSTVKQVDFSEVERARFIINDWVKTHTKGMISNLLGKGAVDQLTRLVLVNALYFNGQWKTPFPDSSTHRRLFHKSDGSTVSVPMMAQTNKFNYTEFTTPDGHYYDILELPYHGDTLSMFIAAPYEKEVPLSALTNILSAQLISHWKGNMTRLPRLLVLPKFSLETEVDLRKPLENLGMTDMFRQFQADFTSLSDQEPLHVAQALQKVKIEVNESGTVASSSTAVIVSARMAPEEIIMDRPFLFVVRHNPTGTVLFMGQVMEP

Compound	Inhibitory Ratio at 25 μM (%)
Nc1cc(C=C2SC(=O)N(Cc3ccc(Cl)c(Cl)c3)C2=O)ccc1O [compound 86]	21
O=C1C(=Cc2cc(Br)cc(Br)c2O)C(O)=NN1c1ccccc1 [compound 101]	28
CC1=NN(c2ccc(Cl)c(Cl)c2)C(=O)C1=Cc1cc(Br)ccc1O [compound 102]	63
CC(C)C1=NN(c2cc(Cl)cc(Cl)c2)C(=O)C1=Cc1cccc(O)c1O [compound 104, 4-(2,3-Dihydroxybenzylidene)-1-(3,5-dichlorophenyl)-3-isopropyl-2-pyrazolin-5-one]	92
CC(C)C1=NN(c2cc(Cl)cc(Cl)c2)C(=O)C1=Cc1cc(Br)cc(Br)c1O [compound 105]	>99
CC(C)C1=NN(c2cc(Cl)cc(Cl)c2)C(=O)C1=Cc1ccc(O)c(C(=O)O)c1 [compound 106]	>99
CC(C)C1=NN(c2cc(Cl)cc(Cl)c2)C(=O)C1=Cc1ccc(O)c(O)c1 [compound 107]	>99
COC(=O)c1cccc(N2N=C(C(C)C)C(=Cc3cc(Br)cc(Br)c3O)C2=O)c1 [compound 108, 4-(3,5-Dibromo-2-hydroxybenzylidene)-1-[3-(Methoxycarbonyl)phenyl]-3-isopropyl-2-pyrazolin-5-one]	27
CC(C)C1=NN(c2cc(C(F)(F)F)cc(C(F)(F)F)c2)C(=O)C1=Cc1ccc(O)c(O)c1 [compound 118, 4-(3,4-Dihydroxybenzylidene)-1-[3,5-bis(trifluoromethyl)phenyl]-3-isopropyl-2-pyrazolin-5-one]	>99
Cc1ccc(N2N=C(C(C)C)C(=Cc3cccc(O)c3)C2=O)cc1Cl [compound 121]	80
CC1=NN(c2cccc(C(F)(F)F)c2)C(=O)C1=Cc1cccc(O)c1 [compound 122]	35
CC1=NN(c2cccc(Cl)c2)C(=O)C1=Cc1cc(O)c(O)c(O)c1 [compound 123]	67
COc1cc(C=C2C(=O)N(c3cccc(Cl)c3)N=C2C)cc(O)c1O [compound 124]	33
CC(C)C1=NN(c2cc(Cl)cc(Cl)c2)C(=O)C1=Cc1cc(O)c(O)c(O)c1 [compound 130]	>99
CCOC1=NN(c2ccc([N+](=O)[O-])cc2)C(=O)C1=Cc1cc(O)c(O)c(O)c1 [compound 132]	>99
CC(C)C1=NN(c2ccc(Cl)c(Cl)c2)C(=O)C1=Cc1cc(O)c(O)c(O)c1 [compound 134, 4-(3,4,5-Trihydroxybenzylidene)-1-(3,4-dichlorophenyl)-3-isopropyl-2-pyrazolin-5-one]	>99
CC1=NN(c2ccc([N+](=O)[O-])cc2)C(=O)C1=Cc1cc(O)c(O)c(O)c1 [compound 135]	94
O=C1C(=Cc2ccc(O)c(O)c2)C(C(F)(F)F)=NN1c1cccc([N+](=O)[O-])c1 [compound 137]	>99
CC(C)(C)C1=NN(c2cc(Cl)cc(Cl)c2)C(=O)C1=Cc1ccc(O)c(O)c1 [compound 138, 4-(3,4-Dihydroxybenzylidene)-1-(3,5-dichlorophenyl)-3-(tert-butyl)-2-pyrazolin-5-one]	>99
CC(C)(C)C1=NN(c2cc(Cl)cc(Cl)c2)C(=O)C1=Cc1cc(O)c(O)c(O)c1 [compound 139]	>99
CC(C)C1=NN(c2cc(Cl)cc(Cl)c2)C(=O)C1=Cc1ccc(O)c(O)c1O [compound 142]	>99
CC1=NN(c2cc(Cl)cc(Cl)c2)C(=O)C1=Cc1cc(O)c(O)c(O)c1 [compound 143]	>99
CC1=NN(c2ccc(Cl)c(Cl)c2)C(=O)C1=Cc1cc(O)c(O)c(O)c1 [compound 144, 4-(3,4,5-Trihydroxybenzylidene)-1-(3,4-dichlorophenyl)-3-methyl-2-pyrazolin-5-one]	53

More lines, now with the values ahead:

Inhibitory Ratio at 25 μM (%)	Compound
95	O=C1SC(=Cc2ccc(O)c(O)c2)C(=O)N1Cc1ccc(C=Cc2cc(C(F)(F)F)cc(C(F)(F)F)c2)cc1 [compound 58, 5-(3,4-Dihydroxybenzylidene)-3-{4-[3,5-bis(trifluoromethyl)styryl]-benzyl}thiazolidine-2,4-dione]
>99	O=C1SC(=Cc2ccc(O)c(O)c2)C(=O)N1Cc1ccc(Oc2ccccc2)cc1 [compound 60, 5-(3,4-Dihydroxybenzylidene)-3-(4-phenoxybenzyl)thiazolidine-2,4-dione]
36	O=C(O)c1cccc(-c2ccc(C=C3SC(=S)N(c4cccc(F)c4)C3=O)o2)c1 [compound 62]
21	O=C1C(=Cc2cc(Cl)ccc2O)SC(=S)N1c1ccccc1 [compound 65]
>99	O=C1SC(=Cc2cccc(O)c2O)C(=O)N1Cc1cc(C(F)(F)F)cc(C(F)(F)F)c1 [compound 70]
74	COc1ccc(OC)c(N2C(=O)C(=Cc3ccc(O)c(O)c3)SC2=S)c1 [compound 75, 5-(3,4-Dihydroxybenzylidene)-3-(2,5-dimethoxyphenyl)rhodanine]
56	COc1ccc(N2C(=O)C(=Cc3ccc(O)c(O)c3)SC2=S)cc1OC [compound 76, 5-(3,4-Dihydroxybenzylidene)-3-(3,4-dimethoxyphenyl)rhodanine]
20	O=C1C(=Cc2ccc(O)c(O)c2)SC(=S)N1c1ccc(O)c(O)c1 [compound 77, 5-(3,4-Dihydroxybenzylidene)-3-(3,4-dihydroxyphenyl)rhodanine]
90	O=C1SC(=Cc2ccc(Cl)c(Cl)c2)C(=O)N1Cc1cc(O)c(O)c(O)c1 [compound 78, 5-(3,4-Dichlorobenzylidene)-3-(3,4,5-trihydroxybenzyl)thiazolidine-2,4-dione]
65	CC(=O)Nc1ccc(C=C2SC(=O)N(Cc3ccc(Cl)c(Cl)c3)C2=O)cc1 [compound 79, 5-[4-(acetamido)benzylidene]-3-(3,4-dichlorobenzyl)-thiazolidine-2,4-dione]
60	O=C(Nc1ccc(CN2C(=O)SC(=Cc3ccc(O)c(O)c3)C2=O)cc1)c1ccccc1 [compound 83]
>99	O=C1SC(=Cc2ccc(O)c([N+](=O)[O-])c2)C(=O)N1Cc1ccc(Cl)c(Cl)c1 [compound 85, 5-(4-hydroxy-3-nitrobenzylidene)-3-(3,4-dichlorobenzyl)-thiazolidine-2,4-dione]
>99	O=C1SC(=Cc2ccc([N+](=O)[O-])c(O)c2)C(=O)N1Cc1ccc(Cl)c(Cl)c1 [compound 87, 5-(3-hydroxy-4-nitrobenzylidene)-3-(3,4-dichlorobenzyl)-thiazolidine-2,4-dione]
65	Nc1ccc(C=C2SC(=O)N(Cc3ccc(Cl)c(Cl)c3)C2=O)cc1O [compound 88]
>99	O=C1SC(=Cc2cccc(O)c2O)C(=O)N1CCc1ccc(Cl)cc1 [compound 90, 5-(2,3-Dihydroxybenzylidene)-3-[2-(4-chlorophenyl)ethyl]thiazolidine-2,4-dione]
>99	O=C(CN1C(=O)SC(=Cc2ccc(O)c(O)c2)C1=O)c1ccc(Cl)cc1Cl [compound 92, 5-(3,4-Dihydroxybenzylidene)-3-[(2,4-dichlorobenzoyl)-methyl]thiazolidine-2,4-dione]
>99	CCOc1cc(C=C2C(=O)N(c3cccc(C(=O)O)c3)N=C2C)ccc1OC(=O)c1cccs1 [compound 103]
>99	CC1=NN(c2cc(Cl)cc(Cl)c2)C(=O)C1=Cc1ccc(O)c(O)c1 [compound 112, 4-(3,4-Dihydroxybenzylidene)-1-(3,5-dichlorophenyl)-3-methyl-2-pyrazolin-5-one]
68	CC1=NN(c2cccc(C(F)(F)F)c2)C(=O)C1=Cc1ccc(O)c(O)c1 [compound 113]
>99	CCOC1=NN(c2ccc([N+](=O)[O-])cc2)C(=O)C1=Cc1ccc(O)c(O)c1 [compound 116]
46	CC1=NN(c2cccc(Cl)c2)C(=O)C1=Cc1ccc(O)c(O)c1 [compound 117]
>99	Cc1ccc(N2N=C(C(C)C)C(=Cc3ccc(O)c(O)c3)C2=O)cc1Cl [compound 119, 4-(3,4-Dihydroxybenzylidene)-1-(3-chloro-4-methylphenyl)-3-isopropyl-2-pyrazolin-5-one]
38	Cc1cccc(N2N=C(C(C)C)C(=Cc3ccc(O)c(O)c3)C2=O)c1 [compound 125, 4-(3,4-Dihydroxybenzylidene)-1-(3-methylphenyl)-3-isopropyl-2-pyrazolin-5-one]
44	COc1cccc(N2N=C(C(C)C)C(=Cc3ccc(O)c(O)c3)C2=O)c1 [compound 126]
>99	O=C1C(=Cc2ccc(O)c(O)c2)C(c2ccccc2)=NN1c1cc(Cl)cc(Cl)c1 [compound 129, 4-(3,4-Dihydroxybenzylidene)-1-(3,5-dichlorophenyl)-3-phenyl-2-pyrazolin-5-one]
>99	O=C1C(=Cc2cc(O)c(O)c(O)c2)C(c2ccccc2)=NN1c1cc(Cl)cc(Cl)c1 [compound 131]
55	CC(C)(C)C1=NN(c2ccccc2)C(=O)C1=Cc1ccc(O)c(O)c1 [compound 133]
>99	CC(C)C1=NN(c2ccc(Cl)c(Cl)c2)C(=O)C1=Cc1ccc(O)c(O)c1 [compound 140]
>99	O=C1C(=Cc2cc(O)c(O)c(O)c2)C(c2ccccc2)=NN1c1ccc(Cl)c(Cl)c1 [compound 146]

From patent US20070276011A1, “Plasminogen Activator Inhibitor-1 Inhibitor” (priority 2003, published 2007)
